1 molecule from patent US20260364072A1, “METHODS FOR PROMOTING EXPANSION OF HUMAN CD34+ CELLS IN VIVO AND FOR PROMOTING NEURAL REGENERATION” (THE REGENTS OF THE UNIVERSITY OF CALIFORNIA, priority 2023, published 2026) can be followed below.

In series [1] the test system is RBL-1 leukemia cells (Sf3b family members). The experiment in a line: Splice isoform biomarker qRT-PCR in rat RBL-1 leukemia cells. In kind it is cell-based. As to conditions: 1 μM, 4 hr; different lots of Rebecsinib. The method, then:
For quantitative analysis of splice isoform expression, RNA editing rates, and whole gene expression by qRT-PCR, cells or tissue fragments were harvested in RNA lysis buffer and total RNA was extracted using RNeasy mini or micro extraction kits (QIAGEN, Germantown, MD) following the manufacturer's protocol including a DNase incubation step to digest any trace genomic DNA present. Levels of ADAR1 variants and LSC-specific transcripts were quantified by qRT-PCR as previously described.^14 RNA-editing site-specific qRT-PCR (RESSqPCR) was performed for variants in AZIN1 transcripts.^53 Additional species-specific primers were also designed to quantify intron retention rates in cells treated with Rebecsinib as a biomarker of response to RNA splicing modulation. […] Relative mRNA expression values were calculated using the 2^−ΔCT method, with normalization to untreated or vehicle-treated controls.^54
For multi-species biomarker development and transcript variant-specific qRT-PCR experiments, human AML cell lines KG-1a, MOLM-13, and HL-60, and rat leukemia cells RBL-1 were grown to confluence and treated with 1 μM Rebecsinib for 4 hr. Cells were collected and lysed in Qiagen RNA lysis buffer, and analyzed using the species-specific primers and qRT-PCR procedures described above.

The next series relates to human CD34+ cells. Nature of the series: Aged normal bone marrow CD34+ engrafted NSG-SGM3 mice, flow cytometry of PB, SP, BM. As to conditions: 10 mg/kg, intravenously, twice a week for 2 weeks. The format is in vivo, human cells in NSG-SGM3 mice. The text has this: Here, we established humanized mouse models using CD34^+ stem cells isolated from the peripheral blood of adult secondary AML (sAML) patients or bone marrow of normal-aged donors (63-79 years old).
FIG. 1: Rebecsinib treatment promotes human CD34^+ cells and spares CD45^+ cells Aged normal bone marrow (BM) samples were provided by Scripps Clinic La Jolla, CA. Normal human CD34^+ cells were freshly isolated with Microbeads (Miltenyi Biotech) and subsequently transduced with the ADAR1-NanoLuc reporter for 48 hours. Adult NSG-SGM3 mice (4-6 weeks) were intravenously transplanted with 100K ADAR1-NanoLuc reporter transduced CD34^+ cells. The mice were screened using the IVIS 200 imaging system and staining of peripheral blood with human CD45 monoclonal antibody. Mice with human CD45^+ cells >1% were included in the treatment cohort receiving Rebecsinib at a dose of 10 mg/kg, intravenously, twice a week for 2 weeks, with a total of 5 doses. After treatment, mice were sacrificed, and single cells were obtained from peripheral blood (PB), bone marrow (BM), and spleen (SP) for further analysis. A. IVIS 200 images of NSG-SGM3 mice intravenously transplanted with ADAR1-NanoLuc reporter transduced normal human CD34^+ cells at 18 weeks after transplantation. B. Flow cytometry gating strategies showing positive and negative controls. C.
For orientation: A flow cytometer gives signals particle by particle.

Another series has as its system ADAR1. Nature of the series: ADAR1 expression by qRT-PCR in TF1a cells. In kind it is cell-based, human. As to conditions: TF1a AML cell line; 0.1 μM, 4 hours. The source says: For lentivirus-mediated knockdown of human ADAR1 in ADAR1 activation and RNA editing biomarker studies of the nanoluc-GFP reporter and endogenous transcripts, human leukemia cells were stably transduced with the lentiviral shRNA vectors targeting ADAR1 (shADAR1) or scrambled control (shCtrl) to ablate endogenous ADAR1 expression. The shRNA plasmids targeting ADAR1 (shADAR1) as well as the scrambled control (shCtrl) were purchased from VectorBuilder (Chicago, IL) (shCtrl: […] (SEQ ID NO:3) and shADAR1: […]) (SEQ ID NO:4). […] Viral titers were assessed by qRT-PCR and transduction efficiency was tested in 293T cells. […]
For quantitative analysis of splice isoform expression, RNA editing rates, and whole gene expression by qRT-PCR, cells or tissue fragments were harvested in RNA lysis buffer and total RNA was extracted using RNeasy mini or micro extraction kits (QIAGEN, Germantown, MD) following the manufacturer's protocol including a DNase incubation step to digest any trace genomic DNA present. Levels of ADAR1 variants and LSC-specific transcripts were quantified by qRT-PCR as previously described.^14 RNA-editing site-specific qRT-PCR (RESSqPCR) was performed for variants in AZIN1 transcripts.^53 Additional species-specific primers were also designed to quantify intron retention rates in cells treated with Rebecsinib as a biomarker of response to RNA splicing modulation. […]
On the technique in general: Real-time PCR tracks product formation cycle by cycle.

Another series has as its system ADAR1p150. Nature of the series: ADAR1p150 protein by intracellular flow cytometry in high-risk MF samples. The format is cell-based, human. As to conditions: 72 hr. The method, then:
(FIG. 28C) Flow cytometry-based quantification of ADAR1 p150 protein expression in high-risk MF samples after in vitro transduction of primary CD34^+ cells with ADAR1 nanoluc-GFP reporter or vector control (pCDH) followed by treatment with vehicle control (DMSO) or Rebecsinib (72 hr).
Flow cytometry for stem and progenitor cell surface antibody staining was performed as previously described.^14 For phospho-flow, a subset of samples was fixed and permeabilized, then blocked and stained with APC-conjugated ADAR1p150 antibody (cat ab269444, 1:25) and pSTAT3 APC (cat 17-9033-42, 1:10) (Table S2). Fractions were analyzed with the BD LSR FORTESSA™ (Sanford Consortium for Regenerative Medicine Stem Cell Core) and FLOWJO™ software (TreeStar, Ashland, OR).

In series [2] the test system is human CD45+ADAR1-GFP+ cells and CD45+CD3+ADAR1-GFP+ cells. The experiment in a line: aNBM SAK148 PDX mice, flow cytometry. As to conditions: 10 mg/kg, IV, BIW×2. In kind it is in vivo, human cells in NSG-SGM3 mice. As for the experimental part: Aged normal bone marrow (aNBM) PDX mouse models SAK148, which were established with 80-100K ADAR1-reporter transduced CD34+ cells by IV injection into NSG-SGM3 mice at the age of 5-6 weeks. When the models were ready, the mice were treated with either vehicle or rebecsinib (10 mg/kg, IV, BIW×2). The mice were sacrificed upon completion of the dosing plan, and single cells from PB, SP, and BM were collected and stained with mAbs for CD45, CD3, CD14, and CD19.

Molecules are shown by their SMILES.

On to `CC[C@H](OC)[C@@H](C)[C@H]1O[C@@H]1[C@@H](O)[C@H](C)/C=C/C=C(\C)[C@H]1OC(=O)C[C@H](O)CC[C@@](C)(O)[C@@H](OC(C)=O)/C=C/[C@@H]1C` [Rebecsinib], for which, in series [1], the “intron retention in Sf3b family members” value is listed as “rapidly induced”. Also, the “human CD45+ cells and differentiated cells (CD14+, CD3+, CD19+)” value in the series with human CD34+ cells is “preserves human CD45^+ cells and differentiated cells, including CD14^+ myeloid cells, and lymphoid cells such as CD3^+ T and CD19^+ B cells”. Moreover, in the series with human CD34+ cells (bone marrow, p=0.046, Student's t-test), the “human CD34+ cells in BM” value is “significant CD34^+ increase”. Moreover, the “human CD34+ cells in PB” value in the series with human CD34+ cells (peripheral blood) is reported as “increased levels of human CD34^+ cells”. In the series with human CD34+ cells (spleen), the “human CD34+ cells in SP” value is “increased levels of human CD34^+ cells”. Moreover, in the series with ADAR1, the “ADAR1 expression as measured by qRT-PCR” value is on record as “reduced ADAR1 expression”. In the series with ADAR1p150, the ADAR1p150 protein expression entry is “reduced ADAR1p150 protein expression”. Also, in series [2], the “CD45+CD3+GFP+ cells in PB, SP, and BM” value is “spares the cell populations”; the “CD45+GFP+ cells in PB, SP, and BM” value is listed as “spares the cell populations”.
